Reference: ChEMBL document CHEMBL1121440, “Soft drugs. 2. Soft alkylating compounds as potential antitumor agents” (1980)

Columns and labels:
Format in all cases: functional
Conditions in all cases: P388, ip, route intraperitoneal
Mus musculus [1] = assay: Evaluated for % increase in median survival rate against P388 Lymphocytic Leukemia at a dose of 200 mg/kg administered intraperitoneally
Mus musculus [2] = assay: Evaluated for % increase in median survival rate against P388 Lymphocytic Leukemia at a dose of 400 mg/kg administered intraperitoneally
Mus musculus [3] = assay: Evaluated for % increase in median survival rate against P388 Lymphocytic Leukemia at a dose of 100 mg/kg administered intraperitoneally
Mus musculus [4] = assay: Evaluated for % increase in median survival rate against P388 Lymphocytic Leukemia at a dose of 50 mg/kg administered intraperitoneally

With `CCCCCCC(=O)OCCl` [HEPTANOIC ACID CHLOROMETHYL ESTER] the ILS at 200 mg/kg (Mus musculus [1]) was 127%, the ILS at 400 mg/kg (Mus musculus [2]) was 109% and the ILS at 100 mg/kg (Mus musculus [3]) was 120%. For the same molecule, the ILS at 50 mg/kg (Mus musculus [4]) was 107%.
